According to patent publication US8258115B2, “Stable salts of S-adenosylmethionine and process for the preparation thereof” (priority 2007, dated 2012):

Tests used:
Assay type in all cases: physicochemical
[1] = Stability test in thermostated heaters at 25° C. and 60% R.H., active ingredient %; conditions: heat-sealed aluminium/aluminium bags
Protocol: (§1) In the following Tables 2-13, the percentage values are repotted which were obtained in the stability tests carried out on the products of examples 1-6. The stability tests were carried out in thermostated heaters at 40° C. and 75% R.H (tables 2-7) as well as 25° C. and 60% R.H. (tables 8-13), preserving the samples in heat-sealed aluminium/aluminium bags according to the following criteria: the active ingredient % was determined for every sampling point taken under consideration.

[2] = Degradation of the active stereoisomer S,S at 25° C. and 65% R.H.
Protocol: (§2) In the following Tables 14-25, the percentage values are reported of the degradation of the active stereoisomer S,S calculated at 40° C. and 75% R.H. (Tables 14-19) and at 25° C. and 65% R.H.

[3] = Moisture % K.F. of the stability samples; conditions: sample used in the stability test
Protocol: In the following Tables 2-13, the percentage values are repotted which were obtained in the stability tests carried out on the products of examples 1-6. The stability tests were carried out in thermostated heaters at 40° C. and 75% R.H (tables 2-7) as well as 25° C. and 60% R.H. (tables 8-13), preserving the samples in heat-sealed aluminium/aluminium bags according to the following criteria: […]

[4] = Stability test in thermostated heaters at 40° C. and 75% R.H., active ingredient %; conditions: heat-sealed aluminium/aluminium bags
Protocol: as §1

[5] = Degradation of the active stereoisomer S,S at 40° C. and 75% R.H.
Protocol: as §2

| Compound | stability test percentage value (active ingredient %), 30 days [1] [%] | stability test percentage value (active ingredient %), 90 days [1] [%] | stability test percentage value (active ingredient %), 180 days [1] [%] | stability test percentage value (active ingredient %), 360 days [1] [%] | stability test percentage value (active ingredient %), 720 days [1] [%] | percentage of the active S,S stereoisomer remaining ([2]; 30 days) [%] | percentage of the active S,S stereoisomer remaining ([2]; 90 days) [%] | percentage of the active S,S stereoisomer remaining ([2]; 180 days) [%] | percentage of the active S,S stereoisomer remaining ([2]; 360 days) [%] | percentage of the active S,S stereoisomer remaining ([2]; 720 days) [%] | percentage of the active S,S stereoisomer remaining ([2]; T = 0) [%] | Moisture % K.F. [3] [%] | stability test percentage value (active ingredient %), 30 days [4] [%] | stability test percentage value (active ingredient %), 60 days [4] [%] | stability test percentage value (active ingredient %), 90 days [4] [%] | stability test percentage value (active ingredient %), 120 days [4] [%] | stability test percentage value (active ingredient %), 180 days [4] [%] | percentage of active S,S stereoisomer remaining ([5]; 30 days) [%] | percentage of active S,S stereoisomer remaining ([5]; 60 days) [%] | percentage of active S,S stereoisomer remaining ([5]; 90 days) [%] | further results |
| --- | --- | --- | --- | --- | --- | --- | --- | --- | --- | --- | --- | --- | --- | --- | --- | --- | --- | --- | --- | --- | --- |
| C[S+](CCC(N)C(=O)[O-])C[C@H]1O[C@@H](n2cnc3c(N)ncnc32)[C@H](O)[C@@H]1O.C[S+](CCC(N)C(=O)[O-])C[C@H]1O[C@@H](n2cnc3c(N)ncnc32)[C@H](O)[C@@H]1O.O=S(=O)(O)O.O=S(=O)([O-])[O-].[Mg+2] (stereo partly drawn) [SAMe•0.5H2SO4•0.5Mg2SO4•0.4H2O] | 0.23 | 0.45 | 0.65 | 0.87 | 0.99 | 97.8 | 96.8 | 95.6 | 92.6 | 88.6 | 98.2 | 0.57 | 0.57 | 0.65 | 0.96 | 1.40 | 2.18 | 90.8 | 88.8 | 85.6 | percentage of active S,S stereoisomer remaining ([5]; 120 days): 82.6%; percentage of active S,S stereoisomer remaining ([5]; 180 days): 78.6%; percentage of active S,S stereoisomer remaining ([5]; T = 0): 98.2% |
| C[S+](CCC(N)C(=O)[O-])C[C@H]1O[C@@H](n2cnc3c(N)ncnc32)[C@H](O)[C@@H]1O.C[S+](CCC(N)C(=O)[O-])C[C@H]1O[C@@H](n2cnc3c(N)ncnc32)[C@H](O)[C@@H]1O.Cl.[Cl-].[Cl-].[Mg+2] (stereo partly drawn) [SAMe•0.5HCl•0.5MgCl2] | 0.35 | 0.43 | 0.76 | 0.90 | 1.07 | 96.5 | 94.8 | 93.7 | 92.6 | 89.5 | 98.9 | 0.54 | 0.56 | 0.87 | 1.45 | 1.99 | 2.67 | 92.5 | 89.8 | 84.5 | percentage of active S,S stereoisomer remaining ([5]; 120 days): 82.6%; percentage of active S,S stereoisomer remaining ([5]; 180 days): 76.6%; percentage of active S,S stereoisomer remaining ([5]; T = 0): 98.9% |
| C[S+](CCC(N)C(=O)[O-])C[C@H]1O[C@@H](n2cnc3c(N)ncnc32)[C@H](O)[C@@H]1O.O=S(=O)(O)O.O=S(=O)(O)O.O=S(=O)([O-])[O-].[Mg+2] (stereo partly drawn) [SAMe•2.0H2SO4•1.0Mg2SO4•0.4H2O] | 0.14 | 0.28 | 0.45 | 0.69 | 0.92 | 97.3 | 96.4 | 94.1 | 91.3 | 89.8 | 97.5 | 0.34 | 0.33 | 0.44 | 0.61 | 1.02 | 1.59 | 91.3 | 89.4 | 84.1 | percentage of active S,S stereoisomer remaining ([5]; 120 days): 81.3%; percentage of active S,S stereoisomer remaining ([5]; 180 days): 75.8%; percentage of active S,S stereoisomer remaining ([5]; T = 0): 97.5% |
